Source: patent US20260184697A1, “EZH1/2 INHIBITOR, PREPARATION THEREOF, AND USE THEREOF IN ANTI-TUMOR THERAPY” (JIANGSU TASLY DIYI PHARMACEUTICAL CO., LTD., priority 2022, published 2026)
Like-named read-outs stand apart in the source and are kept apart here.

Legend:
EZH2/SUZ/EED = target: T1, EZH2/SUZ/EED (Homo sapiens, UniProt O75530+Q15022+Q15910); test: Inhibitory effect on EZH2 by the MTase-Glo method (Test Example 1); format: biochemical; conditions: EZH2/SUZ/EED 6.25 nM, H3 peptide 10 μM, SAM 3 μM, 30° C. 3 h, read-out: Test Example 1 WT EZH2 IC50
T1 construct: purchased BPS 51003
In short: (§1)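 EZH2/SUZ/EED (6.25 nM) or EZH1/SUZ/EED (25 nM) pre-incubated 15 min with compound in pH 7.6 Bicine buffer, 0.5% DMSO. Biotinylated H3(21-44) peptide 10 μM plus SAM 3 μM reacted 3 h at 30 °C; MTase-Glo luminescence normalized to controls, IC50 from variable-slope fit.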

EZH1/SUZ/EED = target: T2, EZH1/SUZ/EED (Homo sapiens, UniProt O75530+Q15022+Q92800); test: Inhibitory effect on EZH1 by the MTase-Glo method (Test Example 1); format: biochemical; conditions: EZH1/SUZ/EED 25 nM, H3 peptide 10 μM, SAM 3 μM, 30° C. 3 h, read-out: Test Example 1 WT EZH1 IC50
T2 construct: purchased BPS 51006
In short: as §1

[1] = tested on: H3K27Me3 methylation in Karpas-422 cells; test: H3K27Me3 cell method, inhibition of H3K27Me3 methylation (Test Example 2); format: cell-based, human; conditions: Homo sapiens, KARPAS-422, 72 h
In short: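 Karpas-422 cells, 15,000/well in 80% RPMI 1640 + 20% FBS, treated with compound dilutions (final DMSO 0.2%) for 3 days at 37 °C, 5% CO2. Cellular H3K27Me3 read by HTRF; viability in parallel by CCK8 at OD405. IC50 from log(inhibitor)-response variable-slope fit of inhibition rate.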

Karpas-422 cells = test: Anti-proliferation by Cell Titer-Glo method (Test Example 3); format: cell-based; conditions: Homo sapiens
Protocol: Karpas-422 (Nanjing Kebai, CBP60629) cells were seeded in a 96-well plate (Corning, 3894) at 1,000 cells per well in growth medium (80% 1640 (Hyclone, SH30809.01)+20% FBS (Corning, 35-081-CV)), in a total of 100 μL, and then was added with 25 μL of 5-fold different concentrations of compounds diluted in growth medium. The cell growth group without compound addition was used as a positive control (maximum signal control), and the medium was used as a negative control (minimum signal control), while ensuring that the final contration of DMSO in each reaction well was 0.2%. Then the 96-well cell plate was placed in a cell culture incubator (37° C., 5% CO2) and incubated for 3 days. On the fourth day, the cell culture plate was taken out of the incubator, using a row gun to gently blow the cells up and down to mix, removing 62.5 μL of the cell suspension, adding 50 μL of growth medium and 12.5 μL of compounds of 5 times different concentrations, and then putting them in the cell incubator to incubate for 4 days. On the eighth day, the same method was used as the fourth day to treat the cells, then incubating in the cell culture incubator for 3 days. On the eleventh day, the Cell-Titer Glo (Promega, G7573) was used to detect cell viability, and a microplate reader was used to detect the signal value of luminescence.
The inhibition rate of different concentrations of compounds on cells was calculated as inhibition rate=[1−(compound signal value−negative control signal value)/(positive control signal value-negative control signal value)][…]. The IC50 of the compound on cell activity inhibition was calculated by GraphPad Prism 6 with log(inhibitor) vs. response-Variable slope model fitting. The fitting equation is: Y=Bottom+(Top−Bottom)/(1+10^((Log IC50−X)*Hill Slope)), wherein Y represents the inhibition rate, and X represents the known concentration of the compound after Log.

[2] = Karpas-422 cells, 3 days incubation, HTRF signal, read-out: Test Example 2 H3K27Me3 inhibition (Karpas-422) IC50
[3] = Karpas-422 cells, Cell-Titer Glo on the eleventh day, read-out: Test Example 3 Karpas-422 cell anti-proliferation IC50
[4] = read-out: Test Example 2 H3K27Me3 inhibition (Karpas-422) IC50(nM)
[5] = KARPAS-422, read-out: Test Example 3 Karpas-422 cell anti-proliferation IC50(nM)

T1 sequence (Q15910 2-746 limits assumed): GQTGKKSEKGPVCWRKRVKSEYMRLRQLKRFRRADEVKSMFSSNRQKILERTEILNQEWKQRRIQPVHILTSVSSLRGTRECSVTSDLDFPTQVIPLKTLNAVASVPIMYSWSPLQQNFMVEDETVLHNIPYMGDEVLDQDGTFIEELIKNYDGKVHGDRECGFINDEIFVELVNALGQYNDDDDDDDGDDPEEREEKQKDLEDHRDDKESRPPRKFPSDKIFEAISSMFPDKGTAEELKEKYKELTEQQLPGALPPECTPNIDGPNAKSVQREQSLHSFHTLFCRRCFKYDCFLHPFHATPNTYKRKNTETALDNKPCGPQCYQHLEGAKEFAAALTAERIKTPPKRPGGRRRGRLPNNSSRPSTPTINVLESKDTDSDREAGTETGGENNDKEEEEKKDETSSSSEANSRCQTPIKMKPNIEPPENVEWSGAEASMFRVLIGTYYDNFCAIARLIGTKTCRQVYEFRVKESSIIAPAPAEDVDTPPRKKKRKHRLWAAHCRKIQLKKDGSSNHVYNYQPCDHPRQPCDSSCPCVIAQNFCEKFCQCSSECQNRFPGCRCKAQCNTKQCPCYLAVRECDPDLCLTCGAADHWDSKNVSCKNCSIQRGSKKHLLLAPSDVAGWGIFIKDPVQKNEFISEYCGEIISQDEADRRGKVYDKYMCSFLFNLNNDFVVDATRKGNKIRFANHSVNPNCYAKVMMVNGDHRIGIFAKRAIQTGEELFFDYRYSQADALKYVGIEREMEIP
T1 sequence (Q15022 2-739 partner limits assumed): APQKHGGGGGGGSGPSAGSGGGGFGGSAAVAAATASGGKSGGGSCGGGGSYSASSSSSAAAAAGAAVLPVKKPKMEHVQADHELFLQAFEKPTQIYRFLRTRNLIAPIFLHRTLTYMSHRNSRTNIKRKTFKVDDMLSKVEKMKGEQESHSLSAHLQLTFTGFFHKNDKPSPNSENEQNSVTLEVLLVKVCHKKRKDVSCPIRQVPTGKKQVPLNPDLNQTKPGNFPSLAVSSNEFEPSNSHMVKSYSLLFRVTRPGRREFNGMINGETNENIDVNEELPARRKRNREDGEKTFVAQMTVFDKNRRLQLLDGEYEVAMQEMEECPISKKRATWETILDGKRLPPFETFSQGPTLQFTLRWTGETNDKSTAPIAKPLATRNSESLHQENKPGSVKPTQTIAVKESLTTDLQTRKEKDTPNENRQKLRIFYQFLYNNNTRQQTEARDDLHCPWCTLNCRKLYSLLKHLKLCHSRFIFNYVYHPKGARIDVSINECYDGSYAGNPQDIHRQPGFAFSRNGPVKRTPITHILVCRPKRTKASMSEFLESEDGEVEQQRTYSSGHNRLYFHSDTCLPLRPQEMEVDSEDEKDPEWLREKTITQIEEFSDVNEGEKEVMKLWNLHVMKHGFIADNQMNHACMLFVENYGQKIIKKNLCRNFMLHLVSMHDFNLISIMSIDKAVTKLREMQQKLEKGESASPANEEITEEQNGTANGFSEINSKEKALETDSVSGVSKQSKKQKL
T1 sequence (O75530 2-441 partner limits assumed): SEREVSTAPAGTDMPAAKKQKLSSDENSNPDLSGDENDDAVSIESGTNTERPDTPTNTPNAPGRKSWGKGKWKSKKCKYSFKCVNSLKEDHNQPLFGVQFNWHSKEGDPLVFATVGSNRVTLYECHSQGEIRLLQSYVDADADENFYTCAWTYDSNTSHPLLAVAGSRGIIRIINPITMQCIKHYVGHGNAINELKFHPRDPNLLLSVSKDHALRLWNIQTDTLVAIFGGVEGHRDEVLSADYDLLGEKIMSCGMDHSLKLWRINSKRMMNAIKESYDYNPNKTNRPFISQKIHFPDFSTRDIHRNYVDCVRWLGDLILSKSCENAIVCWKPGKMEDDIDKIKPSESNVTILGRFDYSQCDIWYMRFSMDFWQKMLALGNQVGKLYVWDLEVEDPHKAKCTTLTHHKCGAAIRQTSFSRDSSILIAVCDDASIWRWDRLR
T2 sequence (Q92800 2-747 limits assumed): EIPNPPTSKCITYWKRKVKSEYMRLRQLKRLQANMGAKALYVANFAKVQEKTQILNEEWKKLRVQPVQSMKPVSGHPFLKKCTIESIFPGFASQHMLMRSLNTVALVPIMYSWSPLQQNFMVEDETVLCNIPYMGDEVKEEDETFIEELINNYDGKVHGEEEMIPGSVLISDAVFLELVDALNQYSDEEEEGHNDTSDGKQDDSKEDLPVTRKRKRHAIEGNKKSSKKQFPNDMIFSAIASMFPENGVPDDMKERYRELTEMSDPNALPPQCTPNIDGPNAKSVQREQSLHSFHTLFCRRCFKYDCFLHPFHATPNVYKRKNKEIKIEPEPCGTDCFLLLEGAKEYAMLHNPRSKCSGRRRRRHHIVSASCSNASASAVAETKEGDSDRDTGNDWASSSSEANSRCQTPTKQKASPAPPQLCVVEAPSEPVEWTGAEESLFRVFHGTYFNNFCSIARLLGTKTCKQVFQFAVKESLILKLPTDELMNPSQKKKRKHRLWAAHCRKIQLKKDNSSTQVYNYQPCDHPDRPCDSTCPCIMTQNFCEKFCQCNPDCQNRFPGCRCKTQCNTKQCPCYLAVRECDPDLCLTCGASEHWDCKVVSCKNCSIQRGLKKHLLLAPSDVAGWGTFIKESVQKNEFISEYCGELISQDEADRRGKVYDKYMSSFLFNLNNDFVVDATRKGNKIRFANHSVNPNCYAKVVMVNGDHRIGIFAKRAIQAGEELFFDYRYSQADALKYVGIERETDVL
T2 sequence (Q15022 2-739 partner limits assumed): as the sequence (Q15022 2-739 partner limits assumed) above
T2 sequence (O75530 2-441 partner limits assumed): as the sequence (O75530 2-441 partner limits assumed) above

SMILES | IC50 (EZH2/SUZ/EED) | IC50 (EZH1/SUZ/EED) | IC50 [1, 2] | IC50 (Karpas-422 cells; [3]) | IC50 [1, 4] | IC50 (Karpas-422 cells; [5])
Cc1cc(C)c(CNC(=O)c2cc(Cl)c3c(c2C)OC[C@@H]([C@H]2CC[C@@H](N(C)C)CC2)O3)c(=O)[nH]1 [Compound 55] | 4.5 nM | 150 nM | 19.4 nM | 47.3 nM | – | –
Cc1cc(C)c(CNC(=O)c2cc(Cl)c3c(c2C)OC[C@H]([C@H]2CC[C@@H](N(C)C)CC2)O3)c(=O)[nH]1 [Compound 56] | 340 nM | 810 nM | 944 nM | > 1000 nM | – | –
COc1cc(C)[nH]c(=O)c1CNC(=O)c1cc(Cl)c2c(c1C)O[C@@H]([C@H]1CC[C@@H](N(C)C)CC1)CO2 [Compound 94] | 3 nM | 8.1 nM | 2.8 nM | 5.1 nM | – | –
COc1cc(C)[nH]c(=O)c1CNC(=O)c1cc(Cl)c2c(c1C)O[C@@H]([C@H]1CC[C@@H](N3CC(OCCF)C3)CC1)CO2 [Compound 109] | 2 nM | 3.8 nM | 1.8 nM | 2.5 nM | – | –
Cc1cc(C)c(CNC(=O)c2c(C)c3c(c(Cl)c2F)OC[C@H](C2CCC(N(C)C)CC2)O3)c(=O)[nH]1 (stereo partly shown) [Compound 130] | 12.6 nM | 201 nM | – | – | 209 nM | 115 nM
Cc1cc(C)c(CNC(=O)c2cc(Cl)c3c(c2Cl)O[C@@H]([C@H]2CC[C@@H](N(C)C)CC2)CO3)c(=O)[nH]1 [Compound 143] | 5.5 nM | 39.9 nM | – | – | 22 nM | 10.7 nM
COC1CN([C@H]2CC[C@@H]([C@H]3COc4c(Cl)cc(C(=O)NCc5c(SC)cc(C)[nH]c5=O)c(Cl)c4O3)CC2)C1 [Compound 149] | 2.3 nM | 3.3 nM | 3.6 nM | 2.7 nM | – | –
COC1CN([C@H]2CC[C@@H]([C@H]3COc4c(C#N)cc(C(=O)NCc5c(SC)cc(C)[nH]c5=O)c(C)c4O3)CC2)C1 [Compound 153] | 3.2 nM | 6.9 nM | 6.2 nM | 3.7 nM | – | –
CSc1cc(C)[nH]c(=O)c1CNC(=O)c1cc(C#N)c2c(c1C)O[C@@H]([C@H]1CC[C@@H](N3CC(OCCF)C3)CC1)CO2 [Compound 161] | 3.7 nM | 5.5 nM | 2.2 nM | 2.4 nM | – | –
COC1CN([C@H]2CC[C@@H]([C@H]3COc4c(Cl)cc(C(=O)NCc5c(Cl)cc(C)[nH]c5=O)c(C)c4O3)CC2)C1 [Compound 175] | 3.4 nM | 16.6 nM | 16.1 nM | 13.6 nM | – | –

Further compounds by falling IC50 (EZH2/SUZ/EED), results first:

IC50 (EZH2/SUZ/EED) | IC50 (EZH1/SUZ/EED) | IC50 [1, 2] | IC50 (Karpas-422 cells; [3]) | SMILES | IC50 [1, 4] | IC50 (Karpas-422 cells; [5])
250 nM | 400 nM | > 1000 nM | > 1000 nM | Cc1cc(C)c(CNC(=O)c2cc(Cl)c3c(c2C)O[C@H]([C@H]2CC[C@@H](N(C)C)CC2)CO3)c(=O)[nH]1 [Compound 54] | – | –
11.5 nM | 375 nM | 616 nM | 341 nM | Cc1cc(C)c(CNC(=O)c2cc(Cl)c3c(c2C)OC(C2CCC(N4CCCC4)CC2)CO3)c(=O)[nH]1 (stereo not shown) [Compound 63] | – | –
6 nM | 5.8 nM | 4.2 nM | 1.8 nM | COC1CN([C@H]2CC[C@@H]([C@H]3COc4c(F)cc(C(=O)NCc5c(SC)cc(C)[nH]c5=O)c(C)c4O3)CC2)C1 [Compound 169] | – | –
3.25 nM | 15.2 nM | 8.2 nM | 5.3 nM | COc1cc(C)[nH]c(=O)c1CNC(=O)c1cc(Cl)c2c(c1C)O[C@@H]([C@H]1CC[C@@H](N3CC(OC)C3)CC1)CO2 [Compound 97] | – | –
3.1 nM | 5.5 nM | 2.2 nM | 3.8 nM | COCCOC1CN([C@H]2CC[C@@H]([C@H]3COc4c(Cl)cc(C(=O)NCc5c(OC)cc(C)[nH]c5=O)c(C)c4O3)CC2)C1 [Compound 101] | – | –
1.1 nM | 7 nM | 1.4 nM | 2.3 nM | CSc1cc(C)[nH]c(=O)c1CNC(=O)c1cc(C#N)c2c(c1C)O[C@@H]([C@H]1CC[C@@H](N3CC(OC4CC4)C3)CC1)CO2 [Compound 159] | – | –
